Among the data in patent US20250215029A1 (Recludix Pharma, Inc., priority 2022, published 2025) are IC50 values, retold here.

T1 sequence (P40763 whole entry): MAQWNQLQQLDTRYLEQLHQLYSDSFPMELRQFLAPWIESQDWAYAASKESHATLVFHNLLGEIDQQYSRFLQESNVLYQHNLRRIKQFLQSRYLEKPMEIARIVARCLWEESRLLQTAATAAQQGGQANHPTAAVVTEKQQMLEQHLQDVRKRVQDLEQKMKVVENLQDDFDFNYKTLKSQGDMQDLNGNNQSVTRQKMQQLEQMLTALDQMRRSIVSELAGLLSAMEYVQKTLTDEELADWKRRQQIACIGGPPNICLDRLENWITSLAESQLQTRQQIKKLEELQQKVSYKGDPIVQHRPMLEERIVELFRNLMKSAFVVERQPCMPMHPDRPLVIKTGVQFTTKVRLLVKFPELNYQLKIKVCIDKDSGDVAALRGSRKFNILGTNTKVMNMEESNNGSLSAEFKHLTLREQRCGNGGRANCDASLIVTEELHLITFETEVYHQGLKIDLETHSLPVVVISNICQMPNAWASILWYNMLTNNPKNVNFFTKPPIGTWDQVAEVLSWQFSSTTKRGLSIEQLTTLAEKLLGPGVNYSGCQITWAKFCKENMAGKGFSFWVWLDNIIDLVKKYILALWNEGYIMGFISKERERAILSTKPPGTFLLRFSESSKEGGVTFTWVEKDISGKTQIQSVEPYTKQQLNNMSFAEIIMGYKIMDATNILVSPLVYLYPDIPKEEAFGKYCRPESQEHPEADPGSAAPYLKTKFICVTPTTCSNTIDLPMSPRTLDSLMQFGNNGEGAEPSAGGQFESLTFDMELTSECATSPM

The assay has as its target T1, pY705-STAT3 in PBMC (Homo sapiens, UniProt P40763).
T1 construct: Cryopreserved Peripheral Blood Mononuclear Cells (PBMC) are from AllCells; host or cells: cryopreserved PBMC
The experiment in a line: MSD-pSTAT-PBMC Assay (pSTAT3, IL-6 stimulated). It counts as cell-based. The note with it: PBMC, compound 3 hrs, then 10 ng/mL IL-6 for 10 min; Table 115; read-out: STAT3. In short, it runs like this:
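PBMC (human, cryopreserved, overnight recovery) + cpd 3 hrs → IL-6 10 ng/mL (STAT3) or IL-4 1 ng/mL (STAT6) ×10 min → lysis with protease/phosphatase inhibitors → MSD capture/phospho detection. IC50, variable slope, DMSO-normalized.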
Take `O=C(SCCOP(=O)(OCCSC(=O)c1ccccc1)C(F)(F)c1ccc2sc(C(=O)N[C@H]3CCC[C@H]4CC[C@@H](C(=O)N5CC(c6cccnc6)C5)N4C3=O)cc2c1)c1ccccc1` [Compound 970, S,S′-((((difluoro(2-(((3S,6S,9aS)-5-oxo-3-(3-(pyridin-3-yl)azetidine-1-carbonyl)octahydro-1H-pyrrolo[1,2-a]azepin-6-yl)carbamoyl)benzo [b]thiophen-5-yl)methyl)-phosphoryl)bis(oxy))bis(ethane-2,1-diyl)) dibenzothioate]: the IC50 was < 0.1 µM. Turning to `CCCCOC(=O)[C@H](C)NP(=O)(Oc1cccc2ccccc12)C(F)(F)c1ccc2sc(C(=O)N[C@H]3CCC[C@H]4CC[C@@H](C(=O)N5CC(c6cccnc6)C5)N4C3=O)cc2c1` (stereo partly drawn) [Compound 971, butyl ((difluoro(2-(((3S,6S,9aS)-5-oxo-3-(3-(pyridin-3-yl)azetidine-1-carbonyl)octahydro-1H-pyrrolo[1,2-a]azepin-6-yl)carbamoyl)benzo [b]thiophen-5-yl)methyl) (naphthalen-1-yloxy)phosphoryl)-L-alaninate], the IC50 was 1 to 3 µM. Take `CC(C)OC(=O)[C@H](C)NP(=O)(Oc1ccccc1)C(F)c1ccc2sc(C(=O)N[C@H]3CCC[C@H]4CC[C@@H](C(=O)N5CC(c6cnccc6F)C5)N4C3=O)cc2c1` (stereo partly drawn) [Compound 972, isopropyl ((fluoro(2-(((3S,6S,9aS)-3-(3-(4-fluoropyridin-3-yl)azetidine-1-carbonyl)-5-oxooctahydro-1H-pyrrolo[1,2-a]azepin-6-yl)carbamoyl)benzo [b]thiophen-5-yl)methyl) (phenoxy)phosphoryl)-L-alaninate]: the IC50 was < 0.1 µM.

In the case of `CCCOC(=O)[C@H](C)NP(=O)(Oc1ccccc1)C(F)c1ccc2sc(C(=O)N[C@H]3CCC[C@H]4CC[C@@H](C(=O)N5CC(c6cnccc6O)C5)N4C3=O)cc2c1` (stereo partly drawn) [Compound 974, propyl ((fluoro(2-(((3S,6S,9aS)-3-(3-(4-hydroxypyridin-3-yl)azetidine-1-carbonyl)-5-oxooctahydro-1H-pyrrolo[1,2-a]azepin-6-yl)carbamoyl)benzo [b]thiophen-5-yl)methyl)(phenoxy)phosphoryl)-L-alaninate], the IC50 lay within 0.1 to 1 µM.

In the case of `CCCOC(=O)[C@H](C)NP(=O)(Cc1ccc2sc(C(=O)N[C@H]3CCC[C@H]4CC[C@@H](C(=O)N5CC(c6cnccc6O)C5)N4C3=O)cc2c1)Oc1ccccc1` (stereo partly drawn) [Compound 975, propyl (((2-(((3S,6S,9aS)-3-(3-(4-hydroxypyridin-3-yl)azetidine-1-carbonyl)-5-oxooctahydro-1H-pyrrolo[1,2-a]azepin-6-yl)carbamoyl)benzo [b]thiophen-5-yl)methyl)(phenoxy)phosphoryl)-L-alaninate], the IC50 was < 0.1 µM. As to `CCCOC(=O)[C@H](C)NP(=O)(Cc1ccc2sc(C(=O)N[C@H]3CCC[C@H]4CC[C@@H](C(=O)N5CC(c6c(F)ccnc6C)C5)N4C3=O)cc2c1)Oc1ccccc1` (stereo partly drawn) [Compound 978, propyl (((2-(((3S,6S,9aS)-3-(3-(4-fluoro-2-methylpyridin-3-yl)azetidine-1-carbonyl)-5-oxooctahydro-1H-pyrrolo[1,2-a]azepin-6-yl)carbamoyl)benzo [b]thiophen-5-yl)methyl)(phenoxy)phosphoryl)-L-alaninate], the IC50 is 0.1 to 1 µM. The same measure for `CCCOC(=O)[C@H](C)NP(=O)(Cc1ccc2sc(C(=O)N[C@H]3CCC[C@H]4CC[C@@H](C(=O)N5CC(c6cn(C)ccc6=O)C5)N4C3=O)cc2c1)Oc1ccccc1` (stereo partly drawn) [Compound 979, propyl (((2-(((3S,6S,9aS)-3-(3-(1-methyl-4-oxo-1,4-dihydropyridin-3-yl)azetidine-1-carbonyl)-5-oxooctahydro-1H-pyrrolo[1,2-a]azepin-6-yl)carbamoyl)benzo [b]thiophen-5-yl)methyl)(phenoxy)phosphoryl)-L-alaninate]: > 3 µM; for `CCCOC(=O)[C@H](C)NP(=O)(Cc1ccc2sc(C(=O)N[C@H]3CCC[C@H]4CC[C@@H](C(=O)N5CC(c6c(OC)ccnc6F)C5)N4C3=O)cc2c1)Oc1ccccc1` (stereo partly drawn) [Compound 980, propyl (((2-(((3S,6S,9aS)-3-(3-(2-fluoro-4-methoxypyridin-3-yl)azetidine-1-carbonyl)-5-oxooctahydro-1H-pyrrolo[1,2-a]azepin-6-yl)carbamoyl)benzo [b]thiophen-5-yl)methyl)(phenoxy)phosphoryl)-L-alaninate]: 1 to 3 µM; for `C[C@H](NP(=O)(Oc1ccccc1)C(F)c1ccc2sc(C(=O)N[C@H]3CCC[C@H]4CC[C@@H](C(=O)N5CC(c6cnccc6F)C5)N4C3=O)cc2c1)C(=O)OCCC(F)(F)F` (stereo partly drawn) [Compound 983, 3,3,3-trifluoropropyl ((fluoro(2-(((3S,6S,9aS)-3-(3-(4-fluoropyridin-3-yl)azetidine-1-carbonyl)-5-oxooctahydro-1H-pyrrolo[1,2-a]azepin-6-yl)carbamoyl)benzo [b]thiophen-5-yl)methyl)(phenoxy)phosphoryl)-L-alaninate]: < 0.1 µM. For `CCCOC(=O)[C@H](C)NP(=O)(Oc1ccccc1)C(F)c1ccc2sc(C(=O)N[C@H]3CCC[C@H]4CC[C@@H](C(=O)N5CC(c6cn(C)ccc6=O)C5)N4C3=O)cc2c1` (stereo partly drawn) [Compound 985, propyl ((fluoro(2-(((3S,6S,9aS)-3-(3-(1-methyl-4-oxo-1,4-dihydropyridin-3-yl)azetidine-1-carbonyl)-5-oxooctahydro-1H-pyrrolo[1,2-a]azepin-6-yl)carbamoyl)benzo [b]thiophen-5-yl)methyl)(phenoxy)phosphoryl)-L-alaninate], the IC50 was > 3 µM. `CCCOC(=O)[C@H](C)NP(=O)(Oc1ccccc1)C(F)c1ccc2sc(C(=O)N[C@H]3CCC[C@H]4CC[C@@H](C(=O)N5CC(c6cc(F)ccc6F)C5)N4C3=O)cc2c1` (stereo partly drawn) [Compound 986, propyl (((2-(((3S,6S,9aS)-3-(3-(2,5-difluorophenyl)azetidine-1-carbonyl)-5-oxooctahydro-1H-pyrrolo[1,2-a]azepin-6-yl)carbamoyl)benzo [b]thiophen-5-yl)fluoromethyl) (phenoxy)phosphoryl)-L-alaninate]: the IC50 fell in the range of 1 to 3 µM.

For `CCCOC(=O)[C@H](C)NP(=O)(Oc1ccccc1)C(F)c1ccc2sc(C(=O)N[C@H]3CCCC[C@H]4CC[C@@H](C(=O)N5CC(NCCOC)(c6ccccn6)C5)N4C3=O)cc2c1` (stereo partly drawn) [Compound 987, propyl ((fluoro(2-(((3S,6S,10aS)-3-(3-((2-methoxyethyl)amino)-3-(pyridin-2-yl)azetidine-1-carbonyl)-5-oxodecahydropyrrolo [1,2-a]azocin-6-yl)carbamoyl)benzo [b]thiophen-5-yl)methyl)(phenoxy)phosphoryl)-L-alaninate], the IC50 was in the range of 0.1 to 1 µM. As to `CCCOC(=O)[C@H](C)NP(=O)(Cc1ccc2sc(C(=O)N[C@H]3CC[C@@H](C)C[C@H]4CC[C@@H](C(=O)N5CC(c6cnccc6F)C5)N4C3=O)cc2c1)Oc1ccccc1` (stereo partly drawn) [Compound 988, propyl (((2-(((3S,6S,9R,10aR)-3-(3-(4-fluoropyridin-3-yl)azetidine-1-carbonyl)-9-methyl-5-oxodecahydropyrrolo [1,2-a]azocin-6-yl)carbamoyl)benzo [b]thiophen-5-yl)methyl)(phenoxy)phosphoryl)-L-alaninate], the IC50 was < 0.1 µM.
